From patent publication US9624170B2, “4-(piperrazin-1-yl)-pyrrolidin-2-one compounds as monoacylglycerol lipase (MAGL) inhibitors” (TAKEDA PHARMACEUTICAL COMPANY LIMITED, priority 2013, dated 2017)

Target: T1, human MAGL (His-hMAGL) (Homo sapiens, UniProt Q99685)
T1 construct: made in house; host or cells: Escherichia coli BL21(DE3)
T1 sequence (Q99685 1-303): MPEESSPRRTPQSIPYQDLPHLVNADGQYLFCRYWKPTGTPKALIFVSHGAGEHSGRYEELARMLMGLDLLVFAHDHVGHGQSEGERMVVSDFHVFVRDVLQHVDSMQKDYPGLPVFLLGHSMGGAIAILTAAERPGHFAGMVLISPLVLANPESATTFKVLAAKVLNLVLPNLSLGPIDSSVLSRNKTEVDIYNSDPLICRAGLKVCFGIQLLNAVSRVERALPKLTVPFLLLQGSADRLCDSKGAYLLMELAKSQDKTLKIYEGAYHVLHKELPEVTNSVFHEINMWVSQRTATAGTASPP
Assay: Measurement of MAGL inhibitory activity by mass spectrometry
Assay type: biochemical
Conditions: 10 μM test compound, substrate 2-arachidonylglycerol, arachidonic acid by RapidFire-mass spectrometry
Procedure: Thereafter, to each well was added 150 μM 2-arachidonylglycerol (Tocris Bioscience) by 5 μL, and the mixture was incubated at room temperature for 10 min. Then, 2% formic acid (Wako Pure Chemical Industries, Ltd.) was added by 10 μL to discontinue the reaction. Furthermore, acetonitrile (50 μL) containing 3 μM arachidonic acid-d8 (Cayman Chemical Company) was added and the mixture was stirred. The amount of arachidonic acid in the obtained enzyme reaction mixture was calculated by measuring by RapidFire-mass spectrometry and correcting by the amount of arachidonic acid-d8. High Throughput online solid phase extraction was performed using RapidFire 300TM system (Agilent Technologies, Inc.). […] The injection needle was washed with ultrapure water (500 millisecond) and acetonitrile (500 millisecond) to minimize carry-over. […] The RapidFire300 system was controlled by RapidFire UI software version 3.6 (Agilent Technologies, Inc.). The mass spectrometry of the resultant product was performed using […] triple quadrupole mass spectrometer (AB SCIEX) equipped with an electrospray ion sauce (Turbolon SprayTM) in a negative selected reaction monitoring (SRM) mode. The conditions of SRM are shown below. The parameters of the instrument were optimized as follows: capillary temperature 600° C., ion spray voltage -4.5 kV, collision gas 8, curtain gas 15 psi, ion source gas 1 60 psi, ion source gas 2 60 psi. The mass spectrometer was controlled by AnalystTM software version 1.5.1 (AB SCIEX). The peak area integration was analyzed using RapidFire integrator software version 3.6 (Agilent Technologies, Inc.). MAGL inhibitory rate (%) was calculated according to the following calculation formula.

| SMILES | inhibition at 10 µM | % inhibition at 10 μM (10 µM) |
| --- | --- | --- |
| CC(=O)N(C)c1ccc(Nc2cccc(N3CC(N4CCN(C(=O)c5nccs5)CC4)CC3=O)c2)cc1 (stereo not drawn) [Example 117, N-methyl-N-(4-((3-(2-oxo-4-(4-(1,3-thiazol-2-ylcarbonyl)piperazin-1-yl)pyrrolidin-1-yl)phenyl)amino)phenyl)acetamide] | 99% |  |
| CC(=O)Nc1cccc(Nc2cccc(N3CC(N4CCN(C(=O)c5nccs5)CC4)CC3=O)c2)c1 (stereo not drawn) [Example 118, N-(3-((3-(2-oxo-4-(4-(1,3-thiazol-2-ylcarbonyl)piperazin-1-yl)pyrrolidin-1-yl)phenyl)amino)phenyl)acetamide] | 99% |  |
| O=C(c1nccs1)N1CCN(C2CC(=O)N(c3cccc(Nc4ccc(N5CCCC5=O)cc4)c3)C2)CC1 (stereo not drawn) [Example 119, 1-(3-((4-(2-oxopyrrolidin-1-yl)phenyl)amino)phenyl)-4-(4-(1,3-thiazol-2-ylcarbonyl)piperazin-1-yl)pyrrolidin-2-one] | 100% |  |
| O=C1COc2ccc(Nc3cccc(N4CC(N5CCN(C(=O)c6nccs6)CC5)CC4=O)c3)cc2N1 (stereo not drawn) [Example 122, 6-((3-(2-oxo-4-(4-(1,3-thiazol-2-ylcarbonyl)piperazin-1-yl)pyrrolidin-1-yl)phenyl)amino)-2H-1,4-benzoxazin-3(4H)-one] | 98% |  |
| O=C1CCc2ccc(Nc3cccc(N4CC(N5CCN(C(=O)c6nccs6)CC5)CC4=O)c3)cc2N1 (stereo not drawn) [Example 123, 7-((3-(2-oxo-4-(4-(1,3-thiazol-2-ylcarbonyl)piperazin-1-yl)pyrrolidin-1-yl)phenyl)amino)-3,4-dihydroquinolin-2(1H)-one] | 97% |  |
| CC(=O)N1CCCC(Nc2cccc(N3CC(N4CCN(C(=O)c5nccs5)CC4)CC3=O)c2)C1 (stereo not drawn) [Example 126, 1-(3-((1-acetylpiperidin-3-yl)amino)phenyl)-4-(4-(1,3-thiazol-2-ylcarbonyl)piperazin-1-yl)pyrrolidin-2-one] | 97% |  |
| CN1CC(Nc2cccc(N3CC(N4CCN(C(=O)c5nccs5)CC4)CC3=O)c2)CCC1=O (stereo not drawn) [Example 127, 1-methyl-5-((3-(2-oxo-4-(4-(1,3-thiazol-2-ylcarbonyl)piperazin-1-yl)pyrrolidin-1-yl)phenyl)amino)piperidin-2-one] | 99% |  |
| O=C(c1nccs1)N1CCN(C2CC(=O)N(c3ccc4c(ccn4-c4ccc(C(F)(F)F)nn4)c3)C2)CC1 (stereo not drawn) [Example 128, 4-(4-(1,3-thiazol-2-ylcarbonyl)piperazin-1-yl)-1-(1-(6-(trifluoromethyl)pyridazin-3-yl)-1H-indol-5-yl)pyrrolidin-2-one] | 101% |  |
| O=C(c1nccs1)N1CCN(C2CC(=O)N(c3ccc4c(ccn4-c4cnc(C(F)(F)F)cn4)c3)C2)CC1 (stereo not drawn) [Example 129, 4-(4-(1,3-thiazol-2-ylcarbonyl)piperazin-1-yl)-1-(1-(5-(trifluoromethyl)pyrazin-2-yl)-1H-indol-5-yl)pyrrolidin-2-one] | 101% |  |
| O=C(c1nccs1)N1CCN(C2CC(=O)N(c3cncc(-c4ccccc4)c3)C2)CC1 (stereo not drawn) [Example 131, 1-(5-phenylpyridin-3-yl)-4-(4-(1,3-thiazol-2-ylcarbonyl)piperazin-1-yl)pyrrolidin-2-one] | 91% |  |
| Cc1cccc(C)c1-c1cccc(N2CC(N3CCN(C(=O)c4nccs4)CC3)CC2=O)c1 (stereo not drawn) [Example 132, 1-(2′,6′-dimethylbiphenyl-3-yl)-4-(4-(1,3-thiazol-2-ylcarbonyl)piperazin-1-yl)pyrrolidin-2-one] | 101% |  |
| COc1ccccc1-c1cccc(N2CC(N3CCN(C(=O)c4nccs4)CC3)CC2=O)c1 (stereo not drawn) [Example 134, 1-(2′-methoxybiphenyl-3-yl)-4-(4-(1,3-thiazol-2-ylcarbonyl)piperazin-1-yl)pyrrolidin-2-one] | 100% |  |
| N#Cc1ccccc1-c1cccc(N2CC(N3CCN(C(=O)c4nccs4)CC3)CC2=O)c1 (stereo not drawn) [Example 135, 3′-(2-oxo-4-(4-(1,3-thiazol-2-ylcarbonyl)piperazin-1-yl)pyrrolidin-1-yl)biphenyl-2-carbonitrile] | 100% |  |
| O=C(c1nccs1)N1CCN(C2CC(=O)N(c3cccc(-c4ccccc4F)c3)C2)CC1 (stereo not drawn) [Example 136, 1-(2′-fluorobiphenyl-3-yl)-4-(4-(1,3-thiazol-2-ylcarbonyl)piperazin-1-yl)pyrrolidin-2-one] | 102% |  |
| O=C(c1nccs1)N1CCN(C2CC(=O)N(c3cccc(-c4ccccc4C(F)(F)F)c3)C2)CC1 (stereo not drawn) [Example 138, 4-(4-(1,3-thiazol-2-ylcarbonyl)piperazin-1-yl)-1-(2′-(trifluorornethyl)biphenyl-3-yl)pyrrolidin-2-one] | 101% |  |
| O=C(c1nccs1)N1CCN(C2CC(=O)N(c3cccc(-c4ccccc4)n3)C2)CC1 (stereo not drawn) [Example 140, 1-(6-phenylpyridin-2-yl)-4-(4-(1,3-thiazol-2-ylcarbonyl)piperazin-1-yl)pyrrolidin-2-one] | 100% |  |
| O=C(c1nccs1)N1CCN(C2CC(=O)N(c3ccc4c(c3)CCN4c3ncc(C(F)(F)F)cn3)C2)CC1 (stereo not drawn) [Example 141, 4-(4-(1,3-Thiazol-2-ylcarbonyl)piperazin-1-yl)-1-(1-(5-(trifluoromethyl)pyrimidin-2-yl)-2,3-dihydro-1H-indol-5-yl)pyrrolidin-2-one] | 98% |  |
| CCc1ccccc1-c1cccc(N2CC(N3CCN(C(=O)c4nccs4)CC3)CC2=O)c1 (stereo not drawn) [Example 142, 1-(2′-ethylbiphenyl-3-yl)-4-(4-(1,3-thiazol-2-ylcarbonyl)piperazin-1-yl)pyrrolidin-2-one] | 100% |  |
| Cc1cccc(-c2cccc(N3CC(N4CCN(C(=O)c5nccs5)CC4)CC3=O)c2)c1C (stereo not drawn) [Example 143, 1-(2′,3′-dirnethylbiphenyl-3-yl)-4-(4-(1,3-thiazol-2-ylcarbonyl)piperazin-1-yl)pyrrolidin-2-one] | 102% |  |
| Cc1ccc(C)c(-c2cccc(N3CC(N4CCN(C(=O)c5nccs5)CC4)CC3=O)c2)c1 (stereo not drawn) [Example 144, 1-(2′,5′-dirnethylbiphenyl-3-yl)-4-(4-(1,3-thiazol-2-ylcarbonyl)piperazin-1-yl)pyrrolidin-2-one] | 101% |  |
| O=C(c1nccs1)N1CCN(C2CC(=O)N(c3cccc(-c4c(F)cccc4F)c3)C2)CC1 (stereo not drawn) [Example 145, 1-(2′,6′-Difluorobiphenyl-3-yl)-4-(4-(1,3-thiazol-2-ylcarbonyl)piperazin-1-yl)pyrrolidin-2-one] | 102% |  |
| O=C(c1nccs1)N1CCN(C2CC(=O)N(c3cccc(-c4c(Cl)cccc4Cl)c3)C2)CC1 (stereo not drawn) [Example 146, 1-(2′,6′-dichlorobiphenyl-3-yl)-4-(4-(1,3-thiazol-2-ylcarbonyl)piperazin-1-yl)pyrrolidin-2-one] | 100% |  |
| O=C(c1nccs1)N1CCN(C2CC(=O)N(c3cccc(OC(F)(F)F)c3)C2)CC1 (stereo not drawn) [Example 148, 4-(4-(1,3-thiazol-2-ylcarbonyl)piperazin-1-yl)-1-(3-(trifluoromethoxy)phenyl)pyrrolidin-2-one] | 95% |  |
| Cc1ccc(-c2cccc(N3CC(N4CCN(C(=O)c5nccs5)CC4)CC3=O)c2)nc1 (stereo not drawn) [Example 149, 1-(3-(5-Methylpyridin-2-yl)phenyl)-4-(4-(1,3-thiazol-2-ylcarbonyl)piperazin-1-yl)pyrrolidin-2-one] | 96% |  |
| Cc1cccc(-c2cccc(N3CC(N4CCN(C(=O)c5nccs5)CC4)CC3=O)c2)n1 (stereo not drawn) [Example 150, 1-(3-(6-Methylpyridin-2-yl)phenyl)-4-(4-(1,3-thiazol-2-ylcarbonyl)piperazin-1-yl)pyrrolidin-2-one] | 96% | 83% |
| O=C(c1nccs1)N1CCN(C2CC(=O)N(c3cccc(-c4ncccc4Cl)c3)C2)CC1 (stereo not drawn) [Example 151, 1-(3-(3-chloropyridin-2-yl)phenyl)-4-(4-(1,3-thiazol-2-ylcarbonyl)piperazin-1-yl)pyrrolidin-2-one] | 99% |  |
| Cc1ccnc(-c2cccc(N3CC(N4CCN(C(=O)c5nccs5)CC4)CC3=O)c2)c1 (stereo not drawn) [Example 152, 1-(3-(4-rnethylpyridin-2-yl)phenyl)-4-(4-(1,3-thiazol-2-ylcarbonyl)piperazin-1-yl)pyrrolidin-2-one] | 99% |  |
| Cc1cccc(C#N)c1-c1cccc(N2CC(N3CCN(C(=O)c4nccs4)CC3)CC2=O)c1 (stereo not drawn) [Example 154, 6-methyl-3′-(2-oxo-4-(4-(1,3-thiazol-2-ylcarbonyl)piperazin-1-yl)pyrrolidin-1-yl)biphenyl-2-carbonitrile] | 101% |  |
| Cc1noc(C)c1-c1cccc(N2CC(N3CCN(C(=O)c4nccs4)CC3)CC2=O)c1 (stereo not drawn) [Example 155, 1-(3-(3,5-dimethyl-1,2-oxazol-4-yl)phenyl)-4-(4-(1,3-thiazol-2-ylcarbonyl)piperazin-1-yl)pyrrolidin-2-one] | 99% |  |
